Experiments:
[1] = target: SARS-CoV-2 Main Protease (SARS-CoV-2) (UniProt P0DTD1)
[2] = target: SARS-CoV-2 Main Protease (SARS-CoV-2) (UniProt P0DTD1); remark: listed apart in the source
trypsin = trypsin (UniProt P07477)
Chain of trypsin (P07477 whole entry, looked up): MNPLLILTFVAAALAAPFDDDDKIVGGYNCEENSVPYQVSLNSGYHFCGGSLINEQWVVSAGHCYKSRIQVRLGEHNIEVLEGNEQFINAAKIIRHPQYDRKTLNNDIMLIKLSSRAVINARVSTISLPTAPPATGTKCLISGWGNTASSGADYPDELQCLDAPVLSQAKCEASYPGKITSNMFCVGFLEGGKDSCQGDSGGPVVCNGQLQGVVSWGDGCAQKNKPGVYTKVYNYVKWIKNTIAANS

Compound | IC50 [1] [µM] | inhibition ([1]; 20.0 µM) [%] | inhibition ([1]; 50.0 µM) [%] | inhibition ([2]; 50.0 µM) [%] | relative solubility at 20 uM | relative solubility at 100 uM | IC50 (trypsin) [µM] | inhibition ([2]; 20.0 µM) [%] | IC50 [2] [µM]
C=CC(=O)N(c1ccc(C2(C)CC2)cc1)C(C(=O)Nc1ccc(Br)cc1)c1cccnc1 (stereo not given) | 19.4 | 2.51 | 67.8 | 47.1 | 1 | 1.01 | 58.2 |  | 
COc1cc(CN2CCN(C(=O)CCl)CC2)c2ccccc2c1 | 1.62 |  | 100 | 90.9 | 1 | 0.95 | 81.7 | 82.8 | 
O=C(CCl)N1CCCc2cc(NCc3ccc(F)cc3Cl)ccc21 |  | 47.9 |  | 52.5 | 0.81 | 0.39 | 51.8 | 25.3 | 
O=C(CCl)N1CCN(Cc2cc(Cl)ccc2CNC(=O)N2CCOCC2)CC1 | 5.55 |  | 93.3 | 79 | 0.98 | 0.94 | 15.8 | 77.2 | 
O=C(Cc1cccc(Cl)c1)Nc1nnn[nH]1 |  |  | 27.2 | 49.1 | 1 | 1 |  | 23.3 | 
Cc1cccc(NC(=O)Cn2cncc2C)n1 |  |  | 0 | -3.38 | 1 | 1.01 |  | -1.3 | 
C=CC(=O)N(c1ccc(C(C)(C)C)cc1)C(C(=O)NC1CCC1)c1cccnc1 (stereo not given) |  | 0 | 51.9 | 12 | 1 | 1 |  | 6.16 | 
O=C(Cc1cccnc1Br)Nc1cccc(OCCn2cncn2)c1 |  | 0 | 0 | -21.7 | 1 | 1 |  |  | 
C=CC(=O)N(c1ccc(C(C)(C)C)cc1)C(C(=O)Nc1ccc(F)cc1)c1cccnc1 (stereo not given) |  | 8.55 | 31.9 | 36 | 0.98 | 0.86 |  | 17 | 
COc1ccc2[nH]cc(CCNS(C)(=O)=O)c2c1 |  | 0 |  | -4.39 | 0.92 | 0.86 |  | -4.19 | 
O=C(c1cc(=O)[nH]c2ccc(F)cc12)N1CCN(S(=O)(=O)c2ccc(Cl)cc2)CC1 |  |  | 50 | 11.4 | 0.98 | 0.81 |  | -1.84 | 
CC(C)(C)CC(=O)C(C#N)C(=O)Nc1ccccc1 (stereo not given) |  | 2.52 | 0 | 21.6 | 1 | 1 |  |  | 
C=CC(=O)N(c1ccc(C(C)(C)C)cc1)C(C(=O)NC(C)(C)C)c1cncc(Br)c1 (stereo not given) |  | 0 | 0 | -13.8 | 0.99 | 0.97 |  | 14.6 | 
CC(=O)N1CCN(S(=O)(=O)c2ccsc2)CC1 |  | 0 | 3.62 | -20.6 | 0.99 | 1 |  |  | 
O=C(CCl)N1CCN(S(=O)(=O)c2ccsc2)CC1 | 0.484 | 96.4 |  | 73.7 | 1 | 1 |  | 78.6 | 1.63
O=C(Cc1ccc(O)cc1)Nc1cccc2cc[nH]c12 |  |  | 0 | -4.9 | 1 | 1 |  | -9.57 | 
O=C(Nc1cnccc1Cl)c1cc(Cl)ccc1O |  | 15.5 | 65.9 | 75.2 | 1 | 0.98 |  | 66.8 | 
COc1ccc(S(=O)(=O)N2CCN(C(=O)c3cc(=O)[nH]c4cc(F)ccc34)CC2)cc1 |  |  | 0 | -3.27 | 0.87 | 0.9 |  | 5.98 | 

Compound | IC50 [1] [µM] | inhibition ([1]; 20.0 µM) [%] | inhibition ([1]; 50.0 µM) [%] | inhibition ([2]; 50.0 µM) [%] | relative solubility at 20 uM | relative solubility at 100 uM | IC50 (trypsin) [µM] | inhibition ([2]; 20.0 µM) [%] | IC50 [2] [µM]
C=CC(=O)N(c1ccc(C(C)(C)C)cc1)C(C(=O)NC(C)(C)C)c1cccnc1 (stereo not given) |  | 0 | 16.1 | 27.2 | 0.96 | 0.89 |  | 12.7 | 
NS(=O)(=O)c1ccc(N2CCC(CN3CCCCCC3)CC2)cc1 |  | -2.46 | 5.22 | -0.987 | 0.99 | 0.91 |  | -5.53 | 
O=C(Cc1cncnc1)Nc1cccc(CCCc2ccccc2)c1 |  | 0 | 0 | 10.1 | 0.96 | 0.94 |  | 1.12 | 
O=C(Nc1cccnc1)c1cc(Cl)ccc1-c1ccccc1 |  | 2.13 |  | 60.4 | 1 | 0.97 |  | 47.4 | 
Cn1cnnc1NC(=O)Cc1cccc(Cl)c1 |  |  | -10.5 | -26 | 1.01 | 1 |  | 5.99 | 
O=C(C1CCN(S(=O)(=O)c2ccccc2)CC1)N1CCOCC1 |  | 0 | 0 | 5.52 | 1 | 0.99 |  | 1.87 | 
O=C(CCNC(=O)c1c[nH]c2ccccc12)Nc1ccc(-n2cnc3ccccc32)cc1 |  |  | 43.9 | 8.08 | 0.82 | 0.54 |  | -3.48 | 
C=CC(=O)N(c1ccc(C(F)(F)F)cc1)C(C(=O)Nc1ccccc1Br)c1cccnc1 (stereo not given) |  | 9.6 |  | 22 | 0.94 | 0.83 |  | 15.6 | 
O=C(Nc1nncn1C1CC1)C1CCOc2ccc(Cl)cc21 (stereo not given) |  |  | 1.9 | 54.6 | 1 | 1 |  | 46.7 | 0.598
O=C(Nc1cccnc1)Nc1cccc(Cl)c1 |  |  | 44.1 | 30.9 | 0.98 | 0.99 |  | 12.9 | 
C=CC(=O)N(c1ccc(C(C)(C)C)cc1)C(C(=O)Nc1ccccc1OC)c1cccnc1 (stereo not given) |  | 0 | 25.4 | 44.2 | 0.97 | 0.95 |  | 26.3 | 
CO[C@H](C)C(=O)Nc1cnccc1C (stereo in doubt) |  |  | 6.56 | 8.97 | 1.01 | 1 |  | 4.95 | 
O=C(NCc1ccccc1OCCO)C(=O)N[C@H]1C[C@H]1C1CCOCC1 (stereo in doubt) |  |  | 0 | -9.81 | 1.01 | 1 |  | 1.34 | 
N#Cc1cccc(NC(=O)Cc2c[nH]c3ncccc23)c1 |  | 0 |  | 2.91 | 1 | 0.95 |  | 2.74 | 
COCC1CCN(c2ccc(S(N)(=O)=O)cc2)CC1 |  | 22.3 | 44 | -23.1 | 0.99 | 1 |  |  | 
O=C(Cc1cncnc1)Nc1cc(F)cc(OC2CC(=O)N2)c1 (stereo not given) |  |  | 45.7 | 87.8 | 0.99 | 0.99 |  | 52.8 | 
C=CC(=O)N(c1ccc(C(C)(C)C)cc1)C(C(=O)NC(C)(C)C)c1cnccc1C (stereo not given) |  | 0 | 0 | -12.5 | 0.99 | 1 |  | -14 | 

Source: the COVID Moonshot data (paper PMC11187573), “Identification of SARS-CoV-2 Mpro inhibitors through deep reinforcement learning for de novo drug design and computational chemistry approaches” (RSC Medicinal Chemistry, 2024)
